Legend:
CEM-SS cells = test: Cytotoxicity (MTS cell viability) in the HIV-1 assay; settings: CEM-SS cells plus peptide only, 10 micrograms per ml
HIV-1IIIB = test: HIV-1 antiviral assay (CPE reduction, MTS) in CEM-SS cells; settings: peptide 10 micrograms per ml, 6 days post-infection
Human A549 cells [1] = test: Apoptosis induction assay (Annexin-5); assay type: cell-based; settings: peptide 10 micrograms per ml, 24 hours
HUVEC = test: Endothelial tube formation assay; assay type: cell-based, human; settings: peptide 10 micrograms per ml, 20 hours
From the text: Positive control was vehicle only.

[2] = system: Human Peripheral Blood Mononuclear Cells (PBMC); test: B cell proliferation assay (SAC plus Interleukin-2, 3H-thymidine); assay type: cell-based; settings: peptide 10 micrograms per ml
[3] = system: Human Peripheral Blood Mononuclear Cells (PBMC); test: T cell proliferation assay (PHA, 3H-thymidine); assay type: cell-based; settings: peptide 10 micrograms per ml
HCMV strain AD169 = test: HCMV plaque reduction assay in MRC-5 cells; assay type: cell-based; settings: peptide 10 micrograms per ml, 7-10 days
From the text: Ganciclovir was used as positive control.

Human A549 cells [4] = test: Propidium iodide cell cycle assay; assay type: cell-based; settings: peptide 10 micrograms per ml, 24 hours
[5] = system: Primary Human endothelial cells (HUVEC); test: Endothelial cell migration assay; assay type: cell-based; settings: peptide 10 micrograms per ml, 22 hours
TNF alpha = TNF alpha production assay (LPS-stimulated macrophages, ELISA); assay type: cell-based, human; settings: peptide 10 micrograms per ml, lipopolysaccharide 200 ng/ml, overnight
From the text: Not stimulated macrophages served as negative background control.

[6] = system: hepatitis B virus (HBV) ayw strain; test: HBV experimental assay system (secreted HBV DNA, TaqMan PCR); settings: peptide 10 micrograms per ml; six days; HBV DNA in supernatant
[7] = Cytotoxicity (CellTiter 96 cell viability) in the HCMV assay; settings: human, MRC-5 cells (human embryonal lung fibroblasts)
Human A549 cells [8] = test: Apoptosis prevention assay (C2 ceramide, Annexin-5); assay type: cell-based; settings: A549 cells pretreated 30 min with peptide 10 micrograms per ml, then C2 ceramide
spleen cells = test: Th1/Th2 cytokine profiling assay (Ovalbumin-restimulated spleen cells, CBA kit); assay type: cell-based, Balb/c mice; settings: peptide 10 micrograms per ml; Ovalbumin restimulation; 72 hours
RAW 264.7 cells = test: Phagocytosis assay (Fluorescein-labeled Escherichia coli, flow cytometry); assay type: cell-based, mouse; settings: peptide 10 micrograms per ml
Description: RAW 264.7 (Mouse leukaemic monocyte macrophage cell line) cells were obtained from ATCC and grown in RPMI 1640 medium containing 10% FBS. […] After the cells were incubated for additional 60 min at 37° C. and allowed to ingest the Fluorescein-labeled Escherichia coli bacteria, cells were fixed with 1% paraformaldehyde. The samples were then analyzed by flow cytometry to determine the amount of phagocytosis as a function of brightness (the greater the phagocytic activity, the more fluorescence in the macrophage population). Data are reported as % positive and the mean fluorescence intensity (MFI) of positively stained cells.

[9] = system: MRC-5 cells (human embryonal lung fibroblasts); test: Cytotoxicity (CellTiter 96 cell viability) in the HCMV assay; settings: MRC-5 cells; 6 days incubation; CellTiter 96

Cc1cn([C@H]2C[C@H](N=[N+]=[N-])[C@@H](CO)O2)c(=O)[nH]c1=O [AZT, reference compound]
% Cell viability (CEM-SS cells): 97% | % CPE reduction in HIV-1 infected CEM-SS cells (HIV-1IIIB): 99%

CC[C@H](C)[C@H](NC(=O)[C@H](C)NC(=O)[C@@H](NC(=O)[C@H](CCC(N)=O)NC(=O)[C@@H]1CCCN1C(=O)[C@H](Cc1ccccc1)NC(=O)[C@@H](NC(=O)[C@H](Cc1c[nH]cn1)NC(=O)[C@H](Cc1ccccc1)NC(=O)[C@H](CCCCN)NC(=O)[C@H](CC(N)=O)NC(=O)[C@H](Cc1ccccc1)NC(=O)[C@H](CC(=O)O)NC(=O)[C@H](CCC(N)=O)NC(=O)[C@@H](NC(=O)[C@H](Cc1ccc(O)cc1)NC(=O)[C@@H](NC(=O)CNC(=O)[C@H](CC(C)C)NC(=O)[C@H](CCSC)NC(=O)[C@@H]1CSSC[C@H](N)C(=O)NCC(=O)N[C@@H](CC(N)=O)C(=O)N[C@@H](CC(C)C)C(=O)N[C@@H](CO)C(=O)N[C@@H]([C@@H](C)O)C(=O)N1)[C@@H](C)O)[C@@H](C)O)[C@@H](C)O)[C@@H](C)O)C(=O)NCC(=O)N[C@H](C(=O)NCC(=O)N[C@@H](C)C(=O)N1CCC[C@H]1C(N)=O)C(C)C [Calcitonin]
% of induction (Human A549 cells [1]): 2.9% | % inhibition of tube formation (HUVEC): 18% | % of SAC/IL2 induced control [2]: 92.6% | % of PHA induced Control [3]: 87.4% | % plaque reduction (HCMV strain AD169): 5.8% | Cell cycle analysis G0/G1 (Human A549 cells [4]): 57.0 | Cell cycle analysis G2/M (Human A549 cells [4]): 10.4 | Cell cycle analysis S (Human A549 cells [4]): 32.6 | % inhibition of migration [5]: 26% | % of LPS induction (TNF alpha): 93.4% | % inhibition of HBV replication in HEP G2 cells [6]: 31.0% | viability at 144 h [7]: 100% | % CPE reduction in HIV-1 infected CEM-SS cells (HIV-1IIIB): 0.0% | % prevention of ceramide induced apoptosis (Human A549 cells [8]): 32.7% | IFNγ spleen cells; TH1 response (% of control) (spleen cells): 63.7 % of control | IL-2 spleen cells (% of control) (spleen cells): 110.1 % of control | IL-4 spleen cells; TH2 response (% of control) (spleen cells): 0.0 % of control | IL-5 spleen cells; TH2 response (% of control) (spleen cells): 60.2 % of control | TNF-a spleen cells; TH1 response (% of control) (spleen cells): 116.4 % of control | % of control phagocytosis (RAW 264.7 cells): 102.9%

Nc1nc(O)c2ncn(COC(CO)CO)c2n1 [Ganciclovir, reference compound]
% Cell viability [9]: 100%

From patent publication US20100204116A1, “USE OF CALCITONIN AS ANTI-ANGIOGENIC AGENT” (priority 2007, published 2010)
